Measured values taken from patent US9981959B2, “Thiazolyl and oxazolyl urea, thiourea, guanidine and cyanoguanidine compounds as TrkA kinase inhibitors” (Array BioPharma Inc., priority 2012, dated 2018).

Experiments:
ROCK-II = target: T1, ROCK-II (Homo sapiens, UniProt O75116); experiment: KinaseProfiler off-target kinase profiling; assay type: biochemical; conditions: 10 μM, ATP near Km
T1 construct: purchased Millipore, Inc. (KinaseProfiler service)
Summary of the method: (§1)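 The kinase was incubated with 10 μM compound and ATP near its Km. Two replicates were run, and their mean activity is given as percent of control.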

AKT2 = target: T2, AKT2 (Homo sapiens, UniProt P31751); experiment: KinaseProfiler off-target kinase profiling; assay type: biochemical; conditions: 10 μM, ATP near Km
T2 construct: purchased Millipore (KinaseProfiler service)
Summary of the method: as §1

Lyn = target: T3, Lyn (Homo sapiens, UniProt P07948); experiment: KinaseProfiler off-target kinase profiling; assay type: biochemical; conditions: 10 μM, ATP near Km
T3 construct: purchased Millipore, Inc. (KinaseProfiler service)
Summary of the method: as §1

p38alpha = target: T4, p38alpha (Homo sapiens, UniProt Q16539); experiment: KinaseProfiler off-target kinase profiling; assay type: biochemical; conditions: 10 μM, ATP near Km
T4 construct: purchased Millipore, Inc. (KinaseProfiler service)
Summary of the method: as §1

ErbB4 = target: T5, ErbB4 (Homo sapiens, UniProt Q15303); experiment: KinaseProfiler off-target kinase profiling; assay type: biochemical; conditions: 10 μM, ATP near Km
T5 construct: purchased Millipore, Inc. (KinaseProfiler service)
Summary of the method: as §1

CAMK4 = target: T6, CAMK4 (Homo sapiens, UniProt Q16566); experiment: KinaseProfiler off-target kinase profiling; assay type: biochemical; conditions: 10 μM, ATP near Km
T6 construct: purchased Millipore (KinaseProfiler service)
Summary of the method: as §1

PDGFRalpha = target: T7, PDGFRalpha (Homo sapiens, UniProt P16234); experiment: KinaseProfiler off-target kinase profiling; assay type: biochemical; conditions: 10 μM, ATP near Km
T7 construct: purchased Millipore, Inc. (KinaseProfiler service)
Summary of the method: as §1

IR Activated = target: T8, IR Activated (Homo sapiens, UniProt P06213); experiment: KinaseProfiler off-target kinase profiling; assay type: biochemical; conditions: 10 μM, ATP near Km
T8 construct: purchased Millipore, Inc. (KinaseProfiler service)
Summary of the method: as §1

CK2 = target: T9, CK2 (Homo sapiens, UniProt P68400); experiment: KinaseProfiler off-target kinase profiling; assay type: biochemical; conditions: 10 μM, ATP near Km
T9 construct: purchased Millipore, Inc. (KinaseProfiler service)
Summary of the method: as §1

PrKX = target: T10, PrKX (Homo sapiens, UniProt P51817); experiment: KinaseProfiler off-target kinase profiling; assay type: biochemical; conditions: 10 μM, ATP near Km
T10 construct: purchased Millipore, Inc. (KinaseProfiler service)
T10 sequence (P51817 whole entry): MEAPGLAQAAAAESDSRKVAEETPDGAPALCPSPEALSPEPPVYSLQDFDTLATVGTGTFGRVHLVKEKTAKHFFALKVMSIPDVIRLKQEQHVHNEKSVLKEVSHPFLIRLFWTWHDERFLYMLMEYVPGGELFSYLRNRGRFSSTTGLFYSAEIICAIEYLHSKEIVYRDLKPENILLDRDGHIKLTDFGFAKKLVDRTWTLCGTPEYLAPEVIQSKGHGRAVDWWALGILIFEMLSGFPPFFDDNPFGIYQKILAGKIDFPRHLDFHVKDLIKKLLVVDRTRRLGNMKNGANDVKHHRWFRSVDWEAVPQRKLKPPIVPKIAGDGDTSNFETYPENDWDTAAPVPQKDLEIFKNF
Summary of the method: as §1

CDK9/cyclinT1 = target: T11, CDK9/cyclinT1 (Homo sapiens, UniProt P50750); experiment: KinaseProfiler off-target kinase profiling; assay type: biochemical; conditions: 10 μM, ATP near Km
T11 construct: purchased Millipore, Inc. (KinaseProfiler service)
T11 sequence (P50750 whole entry): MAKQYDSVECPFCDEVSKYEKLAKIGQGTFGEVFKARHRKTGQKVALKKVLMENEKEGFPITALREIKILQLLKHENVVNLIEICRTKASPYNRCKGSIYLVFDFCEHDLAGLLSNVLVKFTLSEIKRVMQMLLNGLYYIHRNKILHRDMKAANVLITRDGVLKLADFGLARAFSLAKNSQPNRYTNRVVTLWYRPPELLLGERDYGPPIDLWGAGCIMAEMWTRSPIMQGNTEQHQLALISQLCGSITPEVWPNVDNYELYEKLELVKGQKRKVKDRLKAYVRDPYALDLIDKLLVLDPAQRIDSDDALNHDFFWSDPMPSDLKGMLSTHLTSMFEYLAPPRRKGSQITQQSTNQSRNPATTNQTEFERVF
T11 sequence (O60563 whole entry partner): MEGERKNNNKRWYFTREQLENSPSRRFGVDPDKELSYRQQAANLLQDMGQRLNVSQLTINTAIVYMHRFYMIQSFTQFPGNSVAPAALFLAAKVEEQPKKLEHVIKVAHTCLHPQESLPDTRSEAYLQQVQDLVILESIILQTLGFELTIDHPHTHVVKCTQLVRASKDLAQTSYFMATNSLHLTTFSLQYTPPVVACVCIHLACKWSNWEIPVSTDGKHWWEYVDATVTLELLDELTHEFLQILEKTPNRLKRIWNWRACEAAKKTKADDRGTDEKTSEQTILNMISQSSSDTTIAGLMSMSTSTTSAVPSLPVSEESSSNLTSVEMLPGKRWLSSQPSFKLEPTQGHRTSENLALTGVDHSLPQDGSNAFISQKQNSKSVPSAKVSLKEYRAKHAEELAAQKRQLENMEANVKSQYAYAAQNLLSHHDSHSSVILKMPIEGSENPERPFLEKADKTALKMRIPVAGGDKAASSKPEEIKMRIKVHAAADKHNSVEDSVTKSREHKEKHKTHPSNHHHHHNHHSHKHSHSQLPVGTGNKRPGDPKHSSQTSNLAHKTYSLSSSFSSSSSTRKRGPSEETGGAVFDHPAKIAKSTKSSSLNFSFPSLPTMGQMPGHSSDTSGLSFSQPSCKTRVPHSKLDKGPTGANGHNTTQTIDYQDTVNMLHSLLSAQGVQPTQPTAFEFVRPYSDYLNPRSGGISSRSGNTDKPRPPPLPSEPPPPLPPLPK
Summary of the method: as §1

IGF-1R = target: T12, IGF-1R (Homo sapiens, UniProt P08069); experiment: KinaseProfiler off-target kinase profiling; assay type: biochemical; conditions: 10 μM, ATP near Km
T12 construct: purchased Millipore, Inc. (KinaseProfiler service)
Summary of the method: as §1

CAMK1 = target: T13, CAMK1 (Homo sapiens, UniProt Q14012); experiment: KinaseProfiler off-target kinase profiling; assay type: biochemical; conditions: 10 μM, ATP near Km
T13 construct: purchased Millipore (KinaseProfiler service)
Summary of the method: as §1

Ret = target: T14, Ret (Homo sapiens, UniProt P07949); experiment: KinaseProfiler off-target kinase profiling; assay type: biochemical; conditions: 10 μM, ATP near Km
T14 construct: purchased Millipore, Inc. (KinaseProfiler service)
T14 sequence (P07949 29-1114): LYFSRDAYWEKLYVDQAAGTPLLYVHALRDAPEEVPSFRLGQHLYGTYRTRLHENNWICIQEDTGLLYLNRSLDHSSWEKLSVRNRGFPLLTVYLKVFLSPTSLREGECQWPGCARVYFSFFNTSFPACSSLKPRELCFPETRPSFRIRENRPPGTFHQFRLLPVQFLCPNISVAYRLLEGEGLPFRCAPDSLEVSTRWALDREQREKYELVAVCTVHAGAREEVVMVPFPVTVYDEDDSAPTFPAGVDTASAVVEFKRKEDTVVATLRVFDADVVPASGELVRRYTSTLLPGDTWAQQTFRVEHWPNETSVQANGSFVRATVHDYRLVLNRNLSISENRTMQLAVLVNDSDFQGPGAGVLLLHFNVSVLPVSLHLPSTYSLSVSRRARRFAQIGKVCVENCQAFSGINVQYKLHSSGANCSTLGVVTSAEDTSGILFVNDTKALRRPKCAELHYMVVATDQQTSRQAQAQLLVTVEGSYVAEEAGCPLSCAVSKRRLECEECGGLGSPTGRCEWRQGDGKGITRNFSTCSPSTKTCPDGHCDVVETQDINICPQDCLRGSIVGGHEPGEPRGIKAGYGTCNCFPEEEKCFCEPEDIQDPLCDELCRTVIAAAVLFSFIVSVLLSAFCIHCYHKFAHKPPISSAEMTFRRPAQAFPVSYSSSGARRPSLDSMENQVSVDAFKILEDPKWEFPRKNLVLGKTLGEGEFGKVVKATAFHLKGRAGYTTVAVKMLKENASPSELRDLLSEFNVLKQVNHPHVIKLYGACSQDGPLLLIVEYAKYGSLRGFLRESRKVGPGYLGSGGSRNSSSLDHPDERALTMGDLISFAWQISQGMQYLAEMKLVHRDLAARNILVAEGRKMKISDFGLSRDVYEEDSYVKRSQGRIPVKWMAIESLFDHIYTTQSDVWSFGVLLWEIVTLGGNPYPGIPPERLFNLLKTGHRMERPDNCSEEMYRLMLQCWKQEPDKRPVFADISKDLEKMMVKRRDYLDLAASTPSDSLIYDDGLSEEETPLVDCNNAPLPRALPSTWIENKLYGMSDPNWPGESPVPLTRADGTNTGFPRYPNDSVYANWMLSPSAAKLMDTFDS
Summary of the method: as §1

Fgr = target: T15, Fgr (Homo sapiens, UniProt P09769); experiment: KinaseProfiler off-target kinase profiling; assay type: biochemical; conditions: 10 μM, ATP near Km
T15 construct: purchased Millipore, Inc. (KinaseProfiler service)
T15 sequence (P09769 whole entry): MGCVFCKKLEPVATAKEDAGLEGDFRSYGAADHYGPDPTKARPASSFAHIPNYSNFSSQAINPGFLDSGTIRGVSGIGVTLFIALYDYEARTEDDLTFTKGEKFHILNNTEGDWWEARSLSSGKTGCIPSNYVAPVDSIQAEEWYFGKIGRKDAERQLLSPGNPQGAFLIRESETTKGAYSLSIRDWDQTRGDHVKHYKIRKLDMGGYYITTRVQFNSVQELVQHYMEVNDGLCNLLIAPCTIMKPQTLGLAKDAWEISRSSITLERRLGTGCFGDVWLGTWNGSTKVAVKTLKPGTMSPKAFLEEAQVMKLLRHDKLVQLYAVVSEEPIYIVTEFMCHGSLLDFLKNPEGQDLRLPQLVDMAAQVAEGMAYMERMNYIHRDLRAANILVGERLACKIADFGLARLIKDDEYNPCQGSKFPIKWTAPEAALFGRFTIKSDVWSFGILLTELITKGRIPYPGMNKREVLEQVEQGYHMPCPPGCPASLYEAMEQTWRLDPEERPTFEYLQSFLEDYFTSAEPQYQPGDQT
Summary of the method: as §1

FGFR2 = target: T16, FGFR2 (Homo sapiens, UniProt P21802); experiment: KinaseProfiler off-target kinase profiling; assay type: biochemical; conditions: 10 μM, ATP near Km
T16 construct: purchased Millipore, Inc. (KinaseProfiler service)
T16 sequence (P21802 22-821): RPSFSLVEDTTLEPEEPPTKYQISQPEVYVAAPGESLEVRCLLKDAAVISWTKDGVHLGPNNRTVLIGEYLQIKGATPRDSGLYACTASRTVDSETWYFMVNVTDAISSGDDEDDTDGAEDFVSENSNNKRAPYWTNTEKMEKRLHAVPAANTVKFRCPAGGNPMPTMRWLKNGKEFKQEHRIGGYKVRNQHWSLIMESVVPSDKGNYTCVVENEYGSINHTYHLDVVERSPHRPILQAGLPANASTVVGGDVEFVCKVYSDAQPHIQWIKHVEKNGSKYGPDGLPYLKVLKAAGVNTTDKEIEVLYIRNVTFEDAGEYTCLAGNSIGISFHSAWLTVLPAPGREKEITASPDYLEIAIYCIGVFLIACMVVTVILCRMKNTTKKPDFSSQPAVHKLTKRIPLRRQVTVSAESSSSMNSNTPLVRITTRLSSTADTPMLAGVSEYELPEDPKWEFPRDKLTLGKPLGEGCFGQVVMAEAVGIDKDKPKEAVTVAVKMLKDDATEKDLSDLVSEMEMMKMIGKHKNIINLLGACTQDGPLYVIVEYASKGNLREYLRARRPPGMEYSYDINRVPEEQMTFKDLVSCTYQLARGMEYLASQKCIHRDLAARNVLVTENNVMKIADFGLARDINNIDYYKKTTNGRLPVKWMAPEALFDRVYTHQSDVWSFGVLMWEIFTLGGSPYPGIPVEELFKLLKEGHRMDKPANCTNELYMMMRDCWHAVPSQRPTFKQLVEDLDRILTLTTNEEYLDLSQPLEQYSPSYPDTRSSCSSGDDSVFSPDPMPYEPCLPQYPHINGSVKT
Summary of the method: as §1

CK1gamma1 = target: T17, CK1gamma1 (Homo sapiens, UniProt Q9HCP0); experiment: KinaseProfiler off-target kinase profiling; assay type: biochemical; conditions: 10 μM, ATP near Km
T17 construct: purchased Millipore, Inc. (KinaseProfiler service)
Summary of the method: as §1

AURKA = target: T18, AURKA (Homo sapiens, UniProt O14965); experiment: KinaseProfiler off-target kinase profiling; assay type: biochemical; conditions: 10 μM, ATP near Km
T18 construct: purchased Millipore (KinaseProfiler service)
Summary of the method: as §1

EphA8 = target: T19, EphA8 (Homo sapiens, UniProt P29322); experiment: KinaseProfiler off-target kinase profiling; assay type: biochemical; conditions: 10 μM, ATP near Km
T19 construct: purchased Millipore, Inc. (KinaseProfiler service)
T19 sequence (P29322 28-1005): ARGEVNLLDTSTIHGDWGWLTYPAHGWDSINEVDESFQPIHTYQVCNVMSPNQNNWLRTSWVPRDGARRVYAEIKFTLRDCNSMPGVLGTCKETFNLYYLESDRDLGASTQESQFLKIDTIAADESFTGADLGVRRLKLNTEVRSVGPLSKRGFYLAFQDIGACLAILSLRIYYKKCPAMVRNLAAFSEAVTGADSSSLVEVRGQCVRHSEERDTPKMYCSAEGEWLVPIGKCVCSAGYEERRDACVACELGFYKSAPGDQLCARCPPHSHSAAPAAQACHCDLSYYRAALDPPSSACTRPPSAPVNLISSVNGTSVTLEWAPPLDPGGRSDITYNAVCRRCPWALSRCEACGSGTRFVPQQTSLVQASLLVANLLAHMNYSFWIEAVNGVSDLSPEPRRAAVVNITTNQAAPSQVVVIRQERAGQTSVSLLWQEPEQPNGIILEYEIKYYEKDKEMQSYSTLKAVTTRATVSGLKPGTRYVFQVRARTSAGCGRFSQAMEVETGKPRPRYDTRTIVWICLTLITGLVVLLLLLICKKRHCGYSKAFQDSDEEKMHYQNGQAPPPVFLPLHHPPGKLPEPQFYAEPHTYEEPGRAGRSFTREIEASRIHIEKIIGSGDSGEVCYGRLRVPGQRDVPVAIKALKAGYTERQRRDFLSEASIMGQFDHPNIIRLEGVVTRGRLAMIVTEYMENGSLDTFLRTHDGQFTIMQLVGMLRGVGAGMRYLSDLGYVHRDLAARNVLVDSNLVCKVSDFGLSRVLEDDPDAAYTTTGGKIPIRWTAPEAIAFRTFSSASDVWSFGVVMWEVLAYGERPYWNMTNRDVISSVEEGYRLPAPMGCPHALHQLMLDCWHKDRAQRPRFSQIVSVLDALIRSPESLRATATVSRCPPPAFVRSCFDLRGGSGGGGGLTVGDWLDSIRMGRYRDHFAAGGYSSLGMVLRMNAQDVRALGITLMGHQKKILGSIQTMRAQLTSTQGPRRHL
Summary of the method: as §1

FAK = target: T20, FAK (Homo sapiens, UniProt Q05397); experiment: KinaseProfiler off-target kinase profiling; assay type: biochemical; conditions: 10 μM, ATP near Km
T20 construct: purchased Millipore, Inc. (KinaseProfiler service)
Summary of the method: as §1

STK33 = target: T21, STK33 (Homo sapiens, UniProt Q9BYT3); experiment: KinaseProfiler off-target kinase profiling; assay type: biochemical; conditions: 10 μM, ATP near Km
T21 construct: purchased Millipore, Inc. (KinaseProfiler service)
Summary of the method: as §1

MINK = target: T22, MINK (Homo sapiens, UniProt Q8N4C8); experiment: KinaseProfiler off-target kinase profiling; assay type: biochemical; conditions: 10 μM, ATP near Km
T22 construct: purchased Millipore, Inc. (KinaseProfiler service)
Summary of the method: as §1

FGFR1 = target: T23, FGFR1 (Homo sapiens, UniProt P11362); experiment: KinaseProfiler off-target kinase profiling; assay type: biochemical; conditions: 10 μM, ATP near Km
T23 construct: purchased Millipore, Inc. (KinaseProfiler service)
Summary of the method: as §1

TrkA [1] = target: T24, TrkA (Homo sapiens, UniProt P04629); experiment: KinaseProfiler off-target kinase profiling; assay type: biochemical; parameters: purchased Millipore, Inc. (KinaseProfiler service); conditions: 10 μM, ATP near Km
Method: A representative compound of the invention (Example 2) was tested for off-target kinase activity at a concentration of 10 μM by Millipore, Inc. in their KinaseProfiler™ service against all the kinases available in their full kinase panel. The compound was run in duplicate at a concentration of ATP near the Km for each individual kinase according to Millipore's specifications.

TrkA [2] = target: T24, TrkA; experiment: TrkA LanthaScreen Eu Kinase Binding Assay; parameters: 6HIS tagged cytoplasmic domain from Invitrogen, Cat. No. PV3144; purchased Invitrogen PV3144; conditions: averaged IC50; TR-FRET binding, 60 min, 22° C.; read-out: TrkA enzyme IC50
Method: TrkA binding activity was determined in a TrkA LanthaScreen™ Eu Kinase Binding Assay. 5 nM His-tagged recombinant human TrkA (6HIS tagged cytoplasmic domain from Invitrogen, Cat. No. PV3144) was incubated with 4 nM Alexa-Fluor® Tracer 236 (Invitrogen Cat. No. PV5592), 2 nM biotinylated anti-His (Invitrogen Cat. No. PV6090), and 2 nM europium-labeled Streptavidin (Invitrogen Cat. No. PV5899), in buffer (25 mM MOPS, pH 7.5, 5 mM MgCl2, 0.005% Triton X-100). Three fold serial dilutions of compounds of the invention in DMSO were added to a final percentage of 2% DMSO. After 60-minute incubation at 22° C., the reaction was measured using the EnVision mutlimode plate reader (PerkinElmer) via TR-FRET dual wavelength detection at […]. The percent of control was calculated using a ratiometric emission factor. The IC50 values were determined by fitting a four parameter model to the percent of control data.
Table A provides averaged IC50 values for compounds of the invention when tested in the assay of Example A, where A represents an averaged IC50 value <100 nM; and B represents an averaged IC50 value from 100 to 1,000 nM.

Avg POC (ROCK-II): 115.5 POC | Avg POC (AKT2): 171.5 POC | Avg POC (Lyn): 103.5 POC | Avg POC (p38alpha): 91 POC | Avg POC (ErbB4): 125 POC | Avg POC (CAMK4): 132.5 POC | Avg POC (PDGFRalpha): 102.5 POC | Avg POC (IR Activated): 113.5 POC | Avg POC (CK2): 95 POC | Avg POC (PrKX): 122 POC | Avg POC (CDK9/cyclinT1): 108 POC | Avg POC (IGF-1R): 82.5 POC | Avg POC (CAMK1): 95.5 POC | Avg POC (Ret): 91.5 POC | Avg POC (Fgr): 128 POC | Avg POC (FGFR2): 116.5 POC | Avg POC (CK1gamma1): 104 POC | Avg POC (AURKA): 116 POC | Avg POC (EphA8): 118.5 POC | Avg POC (FAK): 106 POC | Avg POC (STK33): 120.5 POC | Avg POC (MINK): 117.5 POC | Avg POC (FGFR1): 80.5 POC | Avg POC (TrkA [1]): −1 POC | IC50 (TrkA [2]): < 100 nM
SMILES: Cc1c(-c2cnn(C)c2)nn(-c2ccccc2)c1NC(=O)Nc1sc(C(F)(F)F)nc1-c1ccccc1 [Example 2, 1-(1′,4-dimethyl-1-phenyl-1H,1′H-[3,4′-bipyrazol]-5-yl)-3-(4-phenyl-2-(trifluoromethyl)thiazol-5-yl)urea]
